Measurements published in ChEMBL document CHEMBL1156829 (Proc Natl Acad Sci U S A, 2008).

Legend:
[1] = system: Plasmodium falciparum; experiment: NOVARTIS: Inhibition of Plasmodium falciparum 3D7 (drug-susceptible) proliferation in erythrocyte-based infection assay; type: functional, organism-based; details: Plasmodium falciparum, 3D7
[2] = NOVARTIS: Cytotoxicity against human hepatocellular carcinoma cell line (Huh7); type: toxicity, cell-based, Huh-7; details: Huh7 cells (hepatocellular carcinoma cell line)
[3] = system: Plasmodium falciparum; experiment: NOVARTIS: Inhibition of Plasmodium falciparum W2 (drug-resistant) proliferation in erythrocyte-based infection assay; type: functional, organism-based; details: Plasmodium falciparum, W2; read-out: EC50

SMILES	EC50 [1] [µM]	CC50 [2] [µM]	EC50 [3] [µM]
Nc1nc(Nc2cccc(Cl)c2)n[nH]1	1.68	> 100	0.958
CC1=NOC(=O)C1=Cc1cccs1	> 8.25	49.7	0.776
CCN(CC)Cc1cc2ccc(C)cc2n(CC(=O)OC)c1=O	> 1.25	> 10	0.0267
CN(C)c1ccc(NC(=O)c2cccnc2C(=O)O)cc1	0.32	7.84	0.841
CCOC(=O)CSc1nc2c(sc(=S)n2-c2ccc(Cl)c(C)c2)c(=O)n1-c1ccccc1OC	> 1.25	> 10	> 0.884
CC(C)CNC(=O)c1cnc(NCCCN2CCCC2)nc1NC1CCCC1	0.774	> 10	> 1.25
Cc1ccccc1N1C(=O)N(c2ccccc2)C2CS(=O)(=O)CC21 (centres undefined)	1.92	> 10	> 1.25
O=C(NC(CN1CCCC1)c1ccccc1)C1CCN(S(=O)(=O)c2ccc(Cl)cc2)CC1 (centres undefined)	0.161	36.8	0.648
COc1cc(NC(C)CCCN(Cc2ccc(OC)c(OC)c2)C(=O)c2ccc3ccccc3c2)c2ncccc2c1 (centres undefined)	0.409	5.33	0.247
CCNC(=O)/C=C/c1ccc(C(C)(C)C)cc1	> 1.1	> 10	0.441
CSCCC(C(=O)NCC(=O)O)N1C(=O)c2cc(NC(C)=O)ccc2NC(=O)[C@@H]1c1ccccc1 (some centres undefined)	> 1.25	> 7.76	0.0153
COc1ccc(CN(C)C(C)C)cc1OC1CCN(C(=O)C2CCC2)CC1	> 11.2	> 100	> 10
Clc1ccc(-c2c[n+](Cc3ccccc3Cl)c3n2CCC3)cc1Cl	0.749	> 30.9	1.31
CC1CCCCN1CCCNc1ncc(C(=O)NCc2ccccc2)c(NC2CCCC2)n1 (centres undefined)	0.943	> 10	> 1.25
Cc1cccc(Nc2c3c(c(C#N)c4nc5ccccc5n24)CCC3)c1	0.0926	> 100	0.0518
Cc1ccc(-n2c(C(C)N(CCc3ccccc3)C(=O)c3cccc(F)c3)nc3ccccc3c2=O)c(C)c1 (centres undefined)	> 1.25	> 10	0.764
Cc1ccccc1N1C(=O)C2C3c4ccccc4C(C(=O)O)(c4ccccc43)C2C1=O (centres undefined)	> 12.5	> 100	2.19

SMILES	EC50 [1] [µM]	CC50 [2] [µM]	EC50 [3] [µM]
CC(C)CNc1nc(NCCCN2CCCC2)ncc1C(=O)NCCc1ccccc1	0.719	> 10	> 1.25
COc1cc(OC)cc(C(=O)N2CCN(c3ccccn3)CC2)c1	> 1.25	> 10	> 1.13
CSc1c(C(=O)Nc2ccc(Br)cc2)ccc2c1C(=O)c1ccccc1C2=O	> 1.25	> 10	> 0.64
Cc1nc([P+](c2ccccc2)(c2ccccc2)c2ccccc2)c(SCc2ccccc2)o1.[O-][Cl+3]([O-])([O-])[O-]	0.456	68.3	0.621
CC(C)(C)C(/C=C/c1ccc(Cl)cc1Cl)n1nnnc1C1(Nc2ccc(Cl)cc2)CCCCC1 (centres undefined)	> 1.25	> 10	> 1.05
COc1cccc(C(=O)Oc2ccccc2-c2nc3ccccn3c2NC(C)(C)CC(C)(C)C)c1	0.27	> 10	0.033
Oc1ccccc1-c1nc(-c2ccccc2)nc(-c2ccc(Br)cc2)n1	> 1.16	> 10	> 1.28
O=[N+]([O-])c1cc(C(F)(F)F)cc([N+](=O)[O-])c1Sc1cccc2cccnc12	4.34	4.34	1.12
N#Cc1ccc(-c2cnc(N)c(-c3ccc(C(N)=O)cc3)n2)cc1	0.0603	> 100	0.0998
CCN1CCN(CCCNC(=S)Nc2ccc3nc(N4CCCC4)cc(C)c3c2)CC1	0.256	44.2	0.773
Clc1ccc2c(c1)CN(C1CCCCC1)CO2	2.29	71	0.2
CC(C)N(C)Cc1cc(-c2nc3ccccc3s2)ccc1O	7.87	> 100	0.509
CN(C)CCN(C)Cc1cc(Br)cs1	> 2.34	> 100	1.01
CC(C)(C)CC(C)(C)Nc1c(-c2ccccc2OC(=O)C(c2ccccc2)c2ccccc2)nc2ccccn12	0.882	2.15	0.0365
CC(C)(C)c1ccc2c(c1)CN(C1CCCCC1)CO2	0.099	20.8	0.0369
O=C(Nc1ccc(OC(F)(F)F)cc1)c1cnn2c1NC(c1cccs1)CC2C(F)(F)F (centres undefined)	0.492	> 50	0.241
